Two molecules from US20230137816A1, “ADMINISTRATION OF CALCIUM CHANNEL TRPC6 INHIBITORS USING BALLOONS, STENTS OR OTHER MEDICAL DEVICES” (DEUTSCHES HERZZENTRUM MUENCHEN DES FREISTAATES BAYERN, priority 2020, published 2023) can be followed below.

What all share (assay type): cell-based
In assay [1] the test system is human aortic smooth muscle cells (hAoSMC). Kind of assay: Scratch wound assay of human aortic SMCs (cell migration). Set-up: VSMC migration (wound reclosure) / VSMC migration versus control: dose or concentration left out as unconfirmed. As to conditions: for wound reclosure: 100 μM OAG. Here is the method:
(§1) Human aortic smooth muscle cells (hAoSMC) were purchased from PromoCell (Heidelberg, Germany) and cultured at 37° C. in a humidified 5% CO2 atmosphere in the recommended cell culture medium (PromoCell, Heidelberg, Germany).
For scratch wound assays, cells were seeded in 24 well plates at a density of 100,000 cells per well. After they had grown to confluence for 24 h the cell monolayer was scratched in the middle with a 200 μl pipette tip. Cells were washed with PBS and incubated in growth medium supplemented with OAG (Sigma-Aldrich, St. […] Wound area was measured directly after the scratch (t0) and after 6 h (t1), 8 h (t2) and 12 h (t3) with a phase-contrast microscope (Axiovert 100, Zeiss, Oberkochen, Germany) and assessed with ImageJ version 1.47v. Wound reclosure was measured as Δt0-t1 (6 h), Δt0-t2 (8 h), and Δt0-t3 (12 h) in pixels. Scratch assays were performed in triplicates. For radius assays, 24-well plates were coated with gelatin solution (Pelobiotech, Planegg, Germany). Culture cylinders (total diameter 4 mm, inner diameter 2 mm; Bioptechs, Butler, Pa., USA) were then placed in the middle of the well and cells were seeded at a density of 100,000 cells per well around the cylinders. 20 μL of SAR 7334 with a final concentration of 100 nM in gelatin were added to the inner of the cylinders. 1% DMSO was used as control. After 24 h of incubation cylinders were removed and pictures were acquired immediately (t0) and after 48 h (t1) using a phase-contrast microscopy system (Axiovert 100, Zeiss, Oberkochen, Germany). Wound reclosure was measured as Δt0-t1 (48 h) in pixels. Measurements were performed in duplicates.
For scratch wound assays, cells were seeded in 24 well plates at a density of 100,000 cells per well. After they had grown to confluence for 24 h the cell monolayer was scratched in the middle with a 200 μl pipette tip. Cells were washed with PBS and incubated in growth medium supplemented with OAG (Sigma-Aldrich, St. Louis, Mo., USA) at final concentration of 100 μM or SAR 7334 (Bio-Techne, Wiesbaden, Germany) at a final concentration of 100 nM. 1% DMSO was used as control. Wound area was measured directly after the scratch (t0) and after 6 h (t1), 8 h (t2) and 12 h (t3) with a phase-contrast microscope (Axiovert 100, Zeiss, Oberkochen, Germany) and assessed with ImageJ version 1.47v. Wound reclosure was measured as Δt0-t1 (6 h), Δt0-t2 (8 h), and Δt0-t3 (12 h) in pixels. Scratch assays were performed in triplicates. For radius assays, 24-well plates were coated with gelatin solution (Pelobiotech, Planegg, Germany). Culture cylinders (total diameter 4 mm, inner diameter 2 mm; Bioptechs, Butler, Pa., USA) were then placed in the middle of the well and cells were seeded at a density of 100,000 cells per well around the cylinders. 20 μL of SAR 7334 with a final concentration of 100 nM in gelatin were added to the inner of the cylinders. 1% DMSO was used as control. After 24 h of incubation cylinders were removed and pictures were acquired immediately (t0) and after 48 h (t1) using a phase-contrast microscopy system (Axiovert 100, Zeiss, Oberkochen, Germany). Wound reclosure was measured as Δt0-t1 (48 h) in pixels. Measurements were performed in duplicates.

The test system is the same in assay [2]. Kind of assay: Cell proliferation assay, BrdU ELISA. The note with it: 100 μM OAG; vehicle 0.08±0.03, p<0.01. The procedure: as §1
Cell proliferation was assessed using of a colorimetric bromodeoxyuridine (BrdU) enzyme-linked immunosorbent assay (ELISA) according to manufacturer's protocol (Roche Applied Science, Penzberg, Germany). Briefly, cells were seeded in 96 well plates at a density of 10,000 cells per well in starving medium, i.e., lacking FBS and growth factors. After 24 h, the starving medium was replaced by growth medium which was either supplemented with 1-Oleoyl-2-acetyl-sn-glycerol (OAG; Sigma-Aldrich, St. Louis, Mo., USA) at a final concentration of 100 μM, SAR 7334 (Tocris Bioscience, Bristol, UK) at a final concentration of 100 nM or with 1% of DMSO which was used as vehicle. After incubation for another 24 h, 10 μl of BrdU solution were added. Absorbance was measured at 370 nm with a reference wavelength of 492 nm in the Infinite M200 PRO microplate reader using the iControl v1.10 software (both Tecan Group, Männedorf, Switzerland) after further 24 h. Measurements were performed in triplicates.

The test system is the same in assay [3]. Description: Radius migration assay of human aortic SMC on SAR7334 coating. The note with it: culture dish coated with SAR7334 (100 nM in gelatin), 48 h. The procedure:
as §1
For scratch wound assays, cells were seeded in 24 well plates at a density of 100,000 cells per well. After they had grown to confluence for 24 h the cell monolayer was scratched in the middle with a 200 μl pipette tip. Cells were washed with PBS and incubated in growth medium supplemented with OAG (Sigma-Aldrich, St. Louis, Mo., USA) at final concentration of 100 μM or SAR 7334 (Bio-Techne, Wiesbaden, Germany) at a final concentration of […]. 1% DMSO was used as control. Wound area was measured directly after the scratch (t0) and after 6 h (t1), 8 h (t2) and 12 h (t3) with a phase-contrast microscope (Axiovert 100, Zeiss, Oberkochen, Germany) and assessed with ImageJ version 1.47v. Wound reclosure was measured as Δt0-t1 (6 h), Δt0-t2 (8 h), and Δt0-t3 (12 h) in pixels. […] Wound reclosure was measured as Δt0-t1 (48 h) in pixels. […]
For scratch wound assays, cells were seeded in 24 well plates at a density of 100,000 cells per well. […] Wound area was measured directly after the scratch (t0) and after 6 h (t1), 8 h (t2) and 12 h (t3) with a phase-contrast microscope (Axiovert 100, Zeiss, Oberkochen, Germany) and assessed with ImageJ version 1.47v. […]

SMILES strings stand for the structures.

On to `CCCCCCCC/C=C\CCCCCCCC(=O)OC[C@H](CO)OC(C)=O` [OAG, 1-oleoyl-2-acetyl-sn-glycerol], for which the wound reclosure in assay [1] (12 hours after scratch, vehicle 156.93±7.06, p=0.01) is reported as 179.14±3.61 10^3 pixels; in assay [1] (eight hours after scratch, vehicle 69.05±7.03, p=0.01), 93.09±3.67 10^3 pixels. The “proliferation of human VSMCs (BrdU ELISA)” value in assay [2] is on record as 0.31±0.07 absorbance units.
In the case of `N#Cc1ccc(O[C@@H]2c3ccccc3C[C@H]2N2CCC[C@@H](N)C2)c(Cl)c1` [SAR7334], the “VSMC migration versus control” value in assay [1] (6 hours after injury) and in assay [1] (8 hours after injury) was “comparable to control levels” throughout. Besides, the “VSMC migration (wound reclosure)” value in assay [1] (12 hours after scratch, control 130.0±10.6, p=0.04) is reported as 111.4±15.5 10^3 pixels. Moreover, the “local migration versus control culture” value in assay [3] is given as “reduced local migration”.
